Results taken from patent US20230242584A1, “NOVEL POLYPEPTIDES WITH SKIN WHITENING ACTIVITY AND USE THEREOF” (Metapore Co., Ltd., priority 2019, published 2023).

Columns and labels:
[1] = tested on: B16F10 cells; experiment: Melanin assay (melanin inhibitory effect); assay type: cell-based; details: 10 μM polypeptide, α-MSH 0.5 μM, 24 hours, absorbance 490 nm, control 10 μM arbutin, FIG. 1
Experimental: B16F10 cells (6×10^4 cells/well) were aliquoted into 6-well plates and incubated. After 12 hours, the medium was changed to a medium containing α-MSH (Sigma, 0.5 μM) and the test substance (each of the polypeptides or control substances of the present invention). Each 10 μM of polypeptides were treated. In addition, 10 μM of arbutin, which is widely known as a skin whitening ingredient, was used as a control. After incubation for 24 hours, cells were harvested. The number of cells was confirmed using a C-chip (disposable hemacytometer, […]). Cells (1×10^5 cells) were lysed with 1N NaOH at 70° C. for 1 hour. After centrifugation at 4,000 rpm for 5 minutes, the supernatant was harvested and the melanin content was measured. The absorbance of melanin was measured at 490 nm using a microplate reader (Synergy 2, BioTek).

[2] = biological target: T1, tyrosinase (Mus musculus, UniProt P11344); experiment: Tyrosinase activity assay (tyrosinase inhibitory effect); assay type: cell-based; details: 10 μM polypeptide, α-MSH 0.5 μM, 24 hours, B16F10 cell lysate with 5 mM L-DOPA; control 10 μM arbutin; FIG. 2
T1 construct: Cells were lysed with PBS buffer containing 1% Triton X-100 (Sigma); endogenous in cells; host or cells: B16F10 cells, stimulated with alpha-MSH
T1 sequence (P11344 19-533): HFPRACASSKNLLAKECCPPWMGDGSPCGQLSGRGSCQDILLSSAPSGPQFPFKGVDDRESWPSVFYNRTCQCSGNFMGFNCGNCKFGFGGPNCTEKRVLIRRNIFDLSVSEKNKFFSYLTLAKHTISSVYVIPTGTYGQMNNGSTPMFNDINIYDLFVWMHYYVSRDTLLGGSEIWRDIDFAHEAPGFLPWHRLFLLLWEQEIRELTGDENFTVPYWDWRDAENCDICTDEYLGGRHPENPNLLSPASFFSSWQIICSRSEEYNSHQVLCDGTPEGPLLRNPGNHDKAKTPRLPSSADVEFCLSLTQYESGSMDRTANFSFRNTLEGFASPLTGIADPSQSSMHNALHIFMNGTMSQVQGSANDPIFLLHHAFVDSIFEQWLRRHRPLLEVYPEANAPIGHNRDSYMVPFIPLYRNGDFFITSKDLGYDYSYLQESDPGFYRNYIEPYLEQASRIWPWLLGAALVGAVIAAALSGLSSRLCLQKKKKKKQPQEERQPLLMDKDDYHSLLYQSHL
Experimental: B16F10 cells (6×10^4 cells/well) were aliquoted into 6-well plates and incubated. After 12 hours, the medium was changed to a medium containing a-MSH (Sigma, 0.5 μM) and the test substance (each of the polypeptides or control substances of the present invention). Each 10 μM of polypeptides were treated. In addition, 10 μM of arbutin, which is widely known as a skin whitening ingredient, was used as a control. After incubation for 24 hours, cells were harvested. Cells were lysed with PBS buffer containing 1% Triton X-100 (Sigma). After centrifugation at 12,000 rpm for 20 minutes, the supernatant was harvested and the protein concentration was measured by BCA assay kit (Thermo Fisher Scientific). To measure tyrosinase activity, 50 μg of protein (protein contained in the supernatant) was incubated at 37° C. with 5 mM L-DOPA. Absorbance was measured at 490 nm using a microplate reader (Synergy 2, BioTek). Absorbance was measured every 10 minutes for 1 hour.

Row | Sequence | inhibitory effect of melanin production [1] | inhibitory effect of tyrosinase [2]
1 | ADQIIEYLKQQVSLL (amino acid sequence of peptide for skin whitening (AIMP1 18aa - 32aa)) [Peptide S2] | better inhibitory effect of melanin production than arbutin | same level of the inhibitory effect of tyrosinase as arbutin
2 | LKEKAILQATLREEK (peptide fragment from AIMP1(AIMP1 32aa - 46aa)) [Peptide S10] | completely absent | insignificant
